According to US7879887B2, “α-amino acid derivatives and medicaments containing the same as an active ingredient” (Nissan Chemical Industries, Ltd., priority 2006, dated 2011):

Columns and labels:
[1] = biological target: T1, CDK3/Cyclin E complex (Homo sapiens, UniProt Q00526); assay: In vitro kinase assay, CDK3/Cyclin E complex; type: biochemical; details: recombinant protein (Upstate); read-out: CDK3/cyclinE IC50
T1 construct: purchased Upstate Inc. 14-487
Method: (§1) Inhibitory activity against Aurora A, CDK1/Cyclin B complex, CDK2/Cyclin E complex and CDK3/Cyclin E complex were measured by in vitro kinase assay using recombinant proteins.

[2] = biological target: T2, Aurora A (Homo sapiens, UniProt O14965); assay: In vitro kinase assay, Aurora A; type: biochemical; details: recombinant protein (Upstate)
T2 construct: purchased Upstate Inc. 14-511
T2 sequence (O14965 1-403): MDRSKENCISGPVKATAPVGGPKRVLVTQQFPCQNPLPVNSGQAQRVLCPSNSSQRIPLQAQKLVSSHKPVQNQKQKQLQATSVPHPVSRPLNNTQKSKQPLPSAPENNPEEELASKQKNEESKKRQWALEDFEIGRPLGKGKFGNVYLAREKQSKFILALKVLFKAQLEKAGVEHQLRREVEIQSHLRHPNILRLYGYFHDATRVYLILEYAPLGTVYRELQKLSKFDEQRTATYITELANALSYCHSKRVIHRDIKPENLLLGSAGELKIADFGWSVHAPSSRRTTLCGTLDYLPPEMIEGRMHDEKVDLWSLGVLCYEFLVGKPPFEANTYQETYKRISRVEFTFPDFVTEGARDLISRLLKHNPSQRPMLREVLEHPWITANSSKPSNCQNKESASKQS
Method: Inhibitory activity against Aurora A, CDK1/Cyclin B complex, CDK2/Cyclin E complex and CDK3/Cyclin E complex were measured by in vitro kinase assay using recombinant proteins. The assays were carried out by using recombinant proteins (Upstate Inc.) for Aurora A, CDK1/Cyclin B complex, CDK2/Cyclin E complex and CDK3/Cyclin E complex (respective cat. nos. 14-511, 14-450, 14-448 and 14-487), in accordance with the procedure described in the product instructions thereof. The 50% inhibitory concentrations (IC50 values) were calculated by assigning measured values in the case of not containing a test compound to an inhibition of 0%, and assigning measured values in the case of not containing a test compound and enzyme to an inhibition of 100%.

[3] = system: colon carcinoma cell line SW620; assay: Cell proliferation inhibitory activity, SW620; type: cell-based, human; details: cells counted 4 days later with Cell Counting Kit-8
Method: (§2) Evaluations were carried out using colon carcinoma cell line SW620 (Cat. No. CCL-227), lung carcinoma cell line NCI-H460 (Cat. No. HTB-177), prostate cancer cell line DU 145 (Cat. No. HTB-81), breast cancer cell line MDA-MB-231 (Cat. No. HTB26) and leukemia cell line KG-1a (Cat. No. CCL-246.1) purchased from ATCC, pancreatic cancer cell line MIAPaCa-2 (Cat. No. CRL-1420) purchased from Dainippon Pharmaceutical, and ovarian cancer cell line IGROV1 received from the Netherland Cancer Institute. The cells were cultured under the conditions recommended by the supplier for each cell line, or with respect to IGROV1, according to the method described in Cancer Res. 59: 4559-4563, 1999. Cells suspended in media were added to solutions containing the test substances at various concentrations followed by culturing in a 5% CO2 incubator at 37° C. The numbers of cells were counted 4 days later with the Cell Counting Kit-8. IC50 values were calculated by assigning measured values in the case of not containing a test substance to an inhibition of 0%, and assigning measured values in the case of not containing a test substance or cells to an inhibition of 100%.

[4] = system: leukemia cell line KG-1a; assay: Cell proliferation inhibitory activity, KG-1a; type: cell-based; details: cells counted 4 days later with Cell Counting Kit-8
Method: as §2

[5] = biological target: CDK2/Cyclin E complex (Homo sapiens, UniProt P24941); assay: In vitro kinase assay, CDK2/Cyclin E complex; type: biochemical; details: recombinant protein (Upstate); read-out: CDK2/cyclinE IC50
Method: as §1

[6] = system: prostate cancer cell line DU 145; assay: Cell proliferation inhibitory activity, DU 145; type: cell-based, human; details: Homo sapiens, 96 h, cells counted 4 days later with Cell Counting Kit-8
Method: as §2

T1 sequence (Q00526 whole entry): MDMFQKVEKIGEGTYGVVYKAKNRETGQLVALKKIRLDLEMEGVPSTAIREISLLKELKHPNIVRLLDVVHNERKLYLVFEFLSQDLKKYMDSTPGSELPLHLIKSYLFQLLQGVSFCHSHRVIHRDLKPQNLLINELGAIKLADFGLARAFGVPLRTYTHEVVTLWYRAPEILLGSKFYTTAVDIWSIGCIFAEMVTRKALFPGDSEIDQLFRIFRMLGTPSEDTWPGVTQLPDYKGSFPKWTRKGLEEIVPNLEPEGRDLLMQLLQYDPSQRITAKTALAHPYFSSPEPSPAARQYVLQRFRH
T1 sequence (P24864 whole entry partner): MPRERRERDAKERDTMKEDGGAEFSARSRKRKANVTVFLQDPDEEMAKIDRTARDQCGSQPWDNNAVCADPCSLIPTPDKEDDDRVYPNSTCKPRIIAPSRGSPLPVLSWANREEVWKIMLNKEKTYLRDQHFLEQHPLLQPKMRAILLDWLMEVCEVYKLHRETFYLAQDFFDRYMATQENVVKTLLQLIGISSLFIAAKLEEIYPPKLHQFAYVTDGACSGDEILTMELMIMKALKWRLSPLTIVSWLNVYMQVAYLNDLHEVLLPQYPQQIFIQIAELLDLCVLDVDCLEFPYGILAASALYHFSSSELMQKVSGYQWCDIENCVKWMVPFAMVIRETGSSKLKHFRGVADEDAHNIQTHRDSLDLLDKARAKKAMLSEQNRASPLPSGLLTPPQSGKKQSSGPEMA

Row | SMILES | IC50 [2] | IC50 [1] | IC50 ([3]; Homo sapiens, SW-620, 96 h) | IC50 ([4]; Homo sapiens, 96 h) | IC50 [5] | further results
1 | O=C(CNc1cccc(O)c1)Nc1nc2ccc3[nH]ncc3c2s1 [compound 2] | 148 nM | 128 nM | 1200 nM | < 100 nM | 82 nM | 
2 | COc1cc(NCC(=O)Nc2nc3ccc4[nH]ncc4c3s2)ccc1Cl [compound 4] |  | 468 nM | 2000 nM | 100 nM | 335 nM | 
3 | O=C(CNc1cc(F)cc(F)c1)Nc1nc2ccc3[nH]ncc3c2s1 [compound 5] |  |  |  |  |  | IC50 [4]: < 100 nM
4 | O=C(CNc1cccc(Cl)c1)Nc1nc2ccc3[nH]ncc3c2s1 [compound 8] |  |  |  |  | 171 nM | 
5 | O=C(CNc1ccc2[nH]ncc2c1)Nc1nc2ccc3[nH]ncc3c2s1 [compound 13] |  |  |  |  | 417 nM | 
6 | CS(=O)(=O)Nc1cccc(NCC(=O)Nc2nc3ccc4[nH]ncc4c3s2)c1 [compound 14] |  | 410 nM |  | 200 nM | 224 nM | 
7 | O=C(CNc1ccc2cn[nH]c2c1)Nc1nc2ccc3[nH]ncc3c2s1 [compound 15] |  | 88 nM |  |  | 40 nM | 
8 | O=C(CNc1ccccc1)Nc1nc2c(C(F)(F)F)cc3[nH]ncc3c2s1 [compound 18] |  | 380 nM |  |  |  | 
9 | Cc1cc2[nH]ncc2c2sc(NC(=O)CNc3ccccc3)nc12 [compound 19] |  | 242 nM | 2900 nM |  | 190 nM | 
10 | O=C(CNc1ccccc1)Nc1nc2c(F)cc3[nH]ncc3c2s1 [compound 20] |  |  |  |  |  | IC50 [3]: 1300 nM; IC50 [4]: 100 nM
11 | COc1cccc(NC(CC(C)C)C(=O)Nc2nc3ccc4[nH]ncc4c3s2)c1 (stereo not drawn) [compound 26] |  |  |  |  |  | IC50 [4]: 200 nM
12 | O=C(Nc1nc2ccc3[nH]ncc3c2s1)C(Nc1cccc(O)c1)c1ccccc1 (stereo not drawn) [compound 27] | 115 nM |  |  | 100 nM |  | 
13 | CCC(=O)Nc1cc(NC(C(=O)Nc2nc3c(C(F)(F)F)cc4[nH]ncc4c3s2)c2ccccc2)ccc1Cl (stereo not drawn) [compound 31] |  | 353 nM | 2700 nM |  | 372 nM | 
14 | Cc1ccc(NC(C)(C)C(=O)Nc2nc3ccc4[nH]ncc4c3s2)cc1 [compound 39] |  | 367 nM | 2000 nM | < 100 nM | 143 nM | 
15 | COc1ccc(NC(C)(C)C(=O)Nc2nc3ccc4[nH]ncc4c3s2)cc1 [compound 40] |  |  | 2300 nM | 200 nM | 340 nM | 
16 | CC(C)(Nc1cccc(F)c1)C(=O)Nc1nc2ccc3[nH]ncc3c2s1 [compound 42] |  |  | 2200 nM | < 100 nM | 434 nM | 
17 | CCOC(=O)c1cc(NC(C)(C)C(=O)Nc2nc3ccc4[nH]ncc4c3s2)ccc1Cl [compound 44] | 107 nM | 157 nM |  | < 100 nM | 160 nM | IC50 [6]: 4.5 µM
18 | CC(C)OC(=O)c1cc(NC(C)(C)C(=O)Nc2nc3ccc4[nH]ncc4c3s2)ccc1Cl [compound 47] | 148 nM | 343 nM |  | < 100 nM | 260 nM | 
19 | CCOC(=O)c1cc(NC(C)(C)C(=O)Nc2nc3ccc4[nH]ncc4c3s2)ccc1F [compound 49] | 265 nM |  |  | < 100 nM |  | 

Second part, led by results:

Row | IC50 [2] | SMILES | IC50 [1] | IC50 ([3]; Homo sapiens, SW-620, 96 h) | IC50 ([4]; Homo sapiens, 96 h) | IC50 [5] | further results
20 | 387 nM | COc1cccc(NC(C)C(=O)Nc2nc3ccc4[nH]ncc4c3s2)c1 (stereo not drawn) [compound 22] |  | 1700 nM | < 100 nM |  | 
21 | 332 nM | COc1cccc(NC(C)(C)C(=O)Nc2nc3ccc4[nH]ncc4c3s2)c1 [compound 34] |  |  | 100 nM |  | 
22 | 347 nM | COc1cc(NC(C)(C)C(=O)Nc2nc3ccc4[nH]ncc4c3s2)ccc1Cl [compound 43] |  |  | 200 nM |  | 
